Measured values taken from US20160220569A1, “CDK4/6 Inhibitor Dosage Formulations For The Protection Of Hematopoietic Stem And Progenitor Cells During Chemotherapy” (G1 Therapeutics, Inc., priority 2015, published 2016).
Like-named read-outs stand apart in the source and are kept apart here.

Experiments:
[1] = Compound 1 PK dosed Days 1-5 with topotecan; assay type: in vivo, human; details: human, plasma, intravenous
Procedure: Analysis of plasma concentration versus time data for calculation of standard pharmacokinetic (PK) parameters following intravenous infusion administration was conducted using Phoenix WinNonlin version 6.3 using a nominal infusion duration and scheduled blood sampling times.

[2] = Red blood cell and neutrophil counts after single dose in dogs; assay type: in vivo; details: out to 15 days
[3] = test system: NCI-H69 mice small cell lung cancer (SCLC) xenograft; test: NCI-H69 small cell lung cancer xenograft study; assay type: in vivo
Text: FIG. 61 is a graph of tumor size (cubic millimeters) vs time (days) for a small cell lung cancer xenograft model with various dosing regimens.

Question: For CN1CCN(c2ccc(Nc3ncc4cc5n(c4n3)C3(CCCCC3)CNC5=O)nc2)CC1 [Compound 1, 2′-((5-(4-methylpiperazin-1-yl)pyridin-2-yl)amino)-7′,8′-dihydro-6′H-spiro[cyclohexane-1,9′-pyrazino[1′,2′:1,5]pyrrolo[2,3-d]pyrimidin]-6′-one], which half-life ([1]; 200 mg/m^2 with Topotecan 0.75 mg/m^2 (Cohort 3), Day 4, individual subjects, read-out: t½ (converted)) is on record?
Answer: 10.7 h

Question: And the AUC(0-inf) ([1]; 200 mg/m^2 with Topotecan 1.25 mg/m^2 (Cohort 2), Day 1, Geo. Mean, read-out: AUCinf)?
Answer: 2490 ng·h/mL

Question: What about the Cmax ([1]; 200 mg/m^2 with Topotecan 1.25 mg/m^2 (Cohort 2), Day 1, Geo. Mean, read-out: Cmax) of the same compound?
Answer: 895 ng/mL

Question: What about the half-life ([1]; 200 mg/m^2 with Topotecan 1.25 mg/m^2 (Cohort 2), Day 1, Geo. Mean, read-out: t½ (converted)) of the same compound?
Answer: 7.77 h

Question: What about the AUC(0-inf) ([1]; 200 mg/m^2 with Topotecan 1.25 mg/m^2 (Cohort 2), Day 1, Mean, read-out: AUCinf) of the same compound?
Answer: 2490 ng·h/mL

Question: And the half-life ([1]; 200 mg/m^2 with Topotecan 1.25 mg/m^2 (Cohort 2), Day 1, Mean, read-out: t½ (converted))?
Answer: 7.87 h

Question: And the AUC(0-inf) ([1]; 200 mg/m^2 with Topotecan 1.25 mg/m^2 (Cohort 2), Day 1, Median, read-out: AUCinf)?
Answer: 2430 ng·h/mL

Question: And the half-life ([1]; 200 mg/m^2 with Topotecan 1.25 mg/m^2 (Cohort 2), Day 1, Median, read-out: t½ (converted))?
Answer: 8.67 h

Question: And the AUC(0-inf) ([1]; 200 mg/m^2 with Topotecan 1.25 mg/m^2 (Cohort 2), Day 1, individual subjects, read-out: AUCinf)?
Answer: 2320 ng·h/mL

Question: What about the Cmax ([1]; 200 mg/m^2 with Topotecan 1.25 mg/m^2 (Cohort 2), Day 1, individual subjects, read-out: Cmax) of the same compound?
Answer: 1000 ng/mL

Question: What about the half-life ([1]; 200 mg/m^2 with Topotecan 1.25 mg/m^2 (Cohort 2), Day 1, individual subjects, read-out: t½ (converted)) of the same compound?
Answer: 6.14 h

Question: And the Cmax ([1]; 200 mg/m^2 with Topotecan 1.25 mg/m^2 (Cohort 2), Day 4, Geometric Mean, read-out: Cmax)?
Answer: 739 ng/mL

Question: What about the half-life ([1]; 200 mg/m^2 with Topotecan 1.25 mg/m^2 (Cohort 2), Day 4, Geometric Mean, read-out: t½ (converted)) of the same compound?
Answer: 8.84 h

Question: What about the Cmax ([1]; 200 mg/m^2 with Topotecan 1.25 mg/m^2 (Cohort 2), Day 4, Mean, read-out: Cmax) of the same compound?
Answer: 752 ng/mL

Question: And the half-life ([1]; 200 mg/m^2 with Topotecan 1.25 mg/m^2 (Cohort 2), Day 4, Mean, read-out: t½ (converted))?
Answer: 8.95 h

Question: And the half-life ([1]; 200 mg/m^2 with Topotecan 1.25 mg/m^2 (Cohort 2), Day 4, Median, read-out: t½ (converted))?
Answer: 9.1 h

Question: What about the Cmax ([1]; 200 mg/m^2 with Topotecan 1.25 mg/m^2 (Cohort 2), Day 4, individual subjects, read-out: Cmax) of the same compound?
Answer: 904 ng/mL

Question: And the half-life ([1]; 200 mg/m^2 with Topotecan 1.25 mg/m^2 (Cohort 2), Day 4, individual subjects, read-out: t½ (converted))?
Answer: 7.15 h

Question: And the AUC(0-inf) ([1]; 200 mg/m^2 with Topotecan […]^2 (Cohort 1), Day 1, Geo. Mean, read-out: AUCinf)?
Answer: 2120 ng·h/mL

Question: And the Cmax ([1]; 200 mg/m^2 with Topotecan […]^2 (Cohort 1), Day 1, Geo. Mean, read-out: Cmax)?
Answer: 932 ng/mL

Question: And the half-life ([1]; 200 mg/m^2 with Topotecan […]^2 (Cohort 1), Day 1, Geo. Mean, read-out: t½ (converted))?
Answer: 5.91 h

Question: And the AUC(0-inf) ([1]; 200 mg/m^2 with Topotecan […]^2 (Cohort 1), Day 1, Mean, read-out: AUCinf)?
Answer: 2140 ng·h/mL

Question: And the Cmax ([1]; 200 mg/m^2 with Topotecan […]^2 (Cohort 1), Day 1, Mean, read-out: Cmax)?
Answer: 955 ng/mL

Question: And the half-life ([1]; 200 mg/m^2 with Topotecan […]^2 (Cohort 1), Day 1, Mean, read-out: t½ (converted))?
Answer: 5.92 h

Question: And the AUC(0-inf) ([1]; 200 mg/m^2 with Topotecan […]^2 (Cohort 1), Day 1, Median, read-out: AUCinf)?
Answer: 2140 ng·h/mL

Question: And the Cmax ([1]; 200 mg/m^2 with Topotecan […]^2 (Cohort 1), Day 1, Median, read-out: Cmax)?
Answer: 955 ng/mL

Question: What about the half-life ([1]; 200 mg/m^2 with Topotecan […]^2 (Cohort 1), Day 1, Median, read-out: t½ (converted)) of the same compound?
Answer: 5.92 h

Question: What about the AUC(0-inf) ([1]; 200 mg/m^2 with Topotecan […]^2 (Cohort 1), Day 1, individual subjects, read-out: AUCinf) of the same compound?
Answer: 1840 ng·h/mL

Question: And the half-life ([1]; 200 mg/m^2 with Topotecan […]^2 (Cohort 1), Day 1, individual subjects, read-out: t½ (converted))?
Answer: 5.6 h

Question: And the Cmax ([1]; 200 mg/m^2 with Topotecan […]^2 (Cohort 1), Day 4, Geometric Mean, read-out: Cmax)?
Answer: 993 ng/mL

Question: What about the half-life ([1]; 200 mg/m^2 with Topotecan […]^2 (Cohort 1), Day 4, Geometric Mean, read-out: t½ (converted)) of the same compound?
Answer: 7.98 h

Question: What about the Cmax ([1]; 200 mg/m^2 with Topotecan […]^2 (Cohort 1), Day 4, Mean, read-out: Cmax) of the same compound?
Answer: 999 ng/mL

Question: What about the half-life ([1]; 200 mg/m^2 with Topotecan […]^2 (Cohort 1), Day 4, Mean, read-out: t½ (converted)) of the same compound?
Answer: 8.06 h

Question: What about the Cmax ([1]; 200 mg/m^2 with Topotecan […]^2 (Cohort 1), Day 4, Median, read-out: Cmax) of the same compound?
Answer: 999 ng/mL

Question: What about the half-life ([1]; 200 mg/m^2 with Topotecan […]^2 (Cohort 1), Day 4, Median, read-out: t½ (converted)) of the same compound?
Answer: 8.06 h

Question: And the half-life ([1]; 200 mg/m^2 with Topotecan […]^2 (Cohort 1), Day 4, individual subjects, read-out: t½ (converted))?
Answer: 6.96 h

Question: What about the AUC(0-inf) ([1]; Cohort 1 (Topotecan […]^2), Compound 1 200 mg/m^2, Day 1, mean, read-out: AUCinf averaged) of the same compound?
Answer: 2140 ng·h/mL

Question: What about the Cmax ([1]; Cohort 1 (Topotecan […]^2), Compound 1 200 mg/m^2, Day 1, mean, read-out: Cmax averaged) of the same compound?
Answer: 955 ng/mL

Question: What about the half-life ([1]; Cohort 1 (Topotecan […]^2), Compound 1 200 mg/m^2, Day 1, mean, read-out: Half-lives averaged (converted)) of the same compound?
Answer: 5.92 h

Question: And the half-life ([1]; Cohort 1 (Topotecan […]^2), Compound 1 200 mg/m^2, Day 4, mean, read-out: Half-lives averaged (converted))?
Answer: 8.06 h

Question: And the Cmax ([1]; Cohort 1 (Topotecan […]^2), Compound 1 200 mg/m^2, Day 4, mean, read-out: average Cmax)?
Answer: 999 ng/mL

Question: And the AUC(0-inf) ([1]; Cohort 2 (Topotecan 1.25 mg/m^2), Compound 1 200 mg/m^2, Day 1, mean, read-out: AUCinf averaged)?
Answer: 2490 ng·h/mL

Question: And the Cmax ([1]; Cohort 2 (Topotecan 1.25 mg/m^2), Compound 1 200 mg/m^2, Day 1, mean, read-out: Cmax averaged)?
Answer: 904 ng/mL

Question: And the half-life ([1]; Cohort 2 (Topotecan 1.25 mg/m^2), Compound 1 200 mg/m^2, Day 1, mean, read-out: Half-lives averaged (converted))?
Answer: 7.87 h

Question: And the half-life ([1]; Cohort 2 (Topotecan 1.25 mg/m^2), Compound 1 200 mg/m^2, Day 4, mean, read-out: Half-lives averaged (converted))?
Answer: 8.95 h

Question: What about the Cmax ([1]; Cohort 2 (Topotecan 1.25 mg/m^2), Compound 1 200 mg/m^2, Day 4, mean, read-out: average Cmax) of the same compound?
Answer: 752 ng/mL

Question: What about the concentration at 24.5 h ([1]; Cohort 2 (Topotecan 1.25 mg/m^2), Day 1, mean, read-out: concentration at 24.5 hours after the start of infusion, averaging) of the same compound?
Answer: 19.5 ng/mL

Question: What about the concentration at 24.5 h ([1]; Cohort 2 (Topotecan 1.25 mg/m^2), Day 4, mean, read-out: concentration at 24.5 hours after dosing, averaged) of the same compound?
Answer: 22.7 ng/mL

Question: What about the AUC(0-inf) ([1]; Cohort 3 (Topotecan 0.75 mg/m^2), Compound 1 200 mg/m^2, Day 1, mean, read-out: AUCinf averaged) of the same compound?
Answer: 2200 ng·h/mL

Question: And the Cmax ([1]; Cohort 3 (Topotecan 0.75 mg/m^2), Compound 1 200 mg/m^2, Day 1, mean, read-out: Cmax averaged)?
Answer: 1140 ng/mL

Question: What about the half-life ([1]; Cohort 3 (Topotecan 0.75 mg/m^2), Compound 1 200 mg/m^2, Day 1, mean, read-out: Half-lives averaged (converted)) of the same compound?
Answer: 7.4 h

Question: And the half-life ([1]; Cohort 3 (Topotecan 0.75 mg/m^2), Compound 1 200 mg/m^2, Day 4, mean, read-out: Half-lives averaged (converted))?
Answer: 8.81 h

Question: And the Cmax ([1]; Cohort 3 (Topotecan 0.75 mg/m^2), Compound 1 200 mg/m^2, Day 4, mean, read-out: average Cmax)?
Answer: 1330 ng/mL

Question: What about the concentration at 24.5 h ([1]; Cohort 3 (Topotecan 0.75 mg/m^2), Day 1, mean, read-out: concentration at 24.5 hours after the start of infusion, averaging) of the same compound?
Answer: 13.3 ng/mL

Question: And the concentration at 24.5 h ([1]; Cohort 3 (Topotecan 0.75 mg/m^2), Day 4, mean, read-out: concentration at 24.5 hours after dosing, averaged)?
Answer: 18.2 ng/mL

Question: What about the “effect on red blood cells and neutrophils” value [2] of the same compound?
Answer: minimal

Question: And the tumor growth suppression ([3]; Compound 1 100 mg/kg qdx5dx4, absence of Topotecan)?
Answer: did not have tumor grown suppression

Question: What about the “tumor suppression vs Topotecan alone” value ([3]; Compound 1 10, 50 or 100 mg/kg with Topotecan 0.6 mg/kg) of the same compound?
Answer: significantly higher level of tumor suppression
